# How the values were obtained:
# Assay type in all cases: in vivo, rat
# [1] = test system: hypothyroid rats; assay: Heart weight and heart/body weight in hypothyroid rats infused with Tetrac or T4; settings: for Heart / Heart/BW (%): hypothyroid rats, mean ± SEM; for Heart: continuous minipump infusion
# Method: (§1) Seventy-nine male SIVZ rats were purchased from the breeder (Institut für Labortierkunde des Universität Zürich, Zürich, Switzerland). They were rendered hypothyroid by a single injection of [^131I]Na (100 μCi/rat) and before and throughout the experiment 0.02% 2-mercapto-1-methylimidazol (MMI) was added to drinking water. In order to have an euthyroid control group of similar weight and identical age, 10 rats received only MMI in the drinking water and 2 weeks before implanting the minipumps, MMI was withdrawn. Osmotic minipumps (secretion rate 0.25 μl/hour, duration 14 days) were implanted intraperitoneally (i.p.) 2 months after the injection of [^131I]Na. The minipumps were filled with T4 or Tetrac dissolved in 0.05 N NaOH, 2% BSA and 100,000 cpm [^125I]T4 or [^125I]Tetrac as control of their secretion rates. The infusion lasted 13 days. 0, 1.5, 4.5, 13.5 and 40.5 nmol Tetrac/day/100 g or 0.5, 1.5, 4.5 and 13.5 nmol T4/day/100 g bodyweight (BW) (n=4/dose) were infused. An euthyroid control group was included. The animals were weighed every 2 days. Rats were sacrificed by decapitation and blood was collected and stored at […] until use. Tissues (liver, heart, brown adipose tissue, cerebral cortex and pituitary) were removed rapidly, frozen in liquid nitrogen and stored at […] until use.
# [2] = test system: GH mRNA; assay: Northern blot, growth hormone mRNA in pituitary
# Method: as §1
# (§2) Total RNA extraction and Northern Blot hybridization Total RNA was extracted with the method of Chomczynski and Sacchi (Chomczynski, P. and Sacchi, N. Anal. Biochem. (1987) 162: 156-159). […]
# (§3) The amount of labeled mRNA was quantified by scanning laser densitometry (Phosphorimager, Molecular Dynamics; Sunnyvale, USA). Variations in RNA loading and membrane transfer were corrected by densitometric quantification of a negative photograph of 28S and 18S ribosomal RNA bands from ethidium bromide stained RNA gels. […]
# [3] = test system: TSH; assay: Serum TSH in hypothyroid rats infused with Tetrac or T4; settings: for Serum TSH: hypothyroid rats, mean ± SEM
# Method: Seventy-nine male SIVZ rats were purchased from the breeder (Institut für Labortierkunde des Universität Zürich, Zürich, Switzerland). […] The infusion lasted 13 days. […] An euthyroid control group was included. The animals were weighed every 2 days. Rats were sacrificed by decapitation and blood was collected and stored at […] until use. Tissues (liver, heart, brown adipose tissue, cerebral cortex and pituitary) were removed rapidly, frozen in liquid nitrogen and stored at […] until use.
# Hornone assays. […] Endocrinol. […] Serum TSH measurements were performed with reagents kindly provided by the National Pituitary Program, NIAMDD, NIH (Bethesda, USA).
# [4] = test system: Monodeiodinase type 2; assay: Monodeiodinase type 2 activity in brain cortex and brown adipose tissue of infused rats; settings: infused rats, remaining activity, adjusted group mean at the mean Ln (TSH) concentration
# Method: as §1
# Monodeiodinase type 1 and 2 activities. Monodeiodinase type 1 and type 2 activities were determined in tissue homogenates by measuring the release of radioiodide from [^125I]rT3 according to the method of Leonard and Rosenberg (Leonard, J. L. et al. Endocrinology (1980) 106: 444-451).
# Monodeiodinase type 1 activity was measured in liver homogenates using 1 μM rT3 and 1 mM DTT with 10 min of incubation, whereas for heart, 0.01 μM rT3 and 10 mM DTT with 1 hour of incubation. Monodeiodinase type 2 activity was measured in brown adipose tissue (BAT) and cerebral cortex using 1 nM rT3, 10 mM DTT and 1 mM propylthiouracil (PTU) with 1 hour of incubation. Protein concentrations were measured by the method of Bradford (Bio-Rad Laboratories GmbH, Munich, Germany) with bovine gammaglobulin as the protein standard. In order to study the effect of circulating Tetrac on the enzyme activities, 2 rats were injected intraperitoneally with 10 μCi ^125I Tetrac and killed 6 hours later. The tissue homogenates were extracted with 3 volumes of ethanol-NH3 (97:3). After 10 minutes centrifugation at 15,000 g, the supernatant was vacuum dried and applied to TLC (Merck 254, Toluol, acetic acid, water: 2:2:1). In order to calculate the tissue concentrations, the highest serum Tetrac levels were used (406 pmol/ml). The calculated tissue concentrations were: liver: 1.9, heart: 2.29 and brain cortex: 0.47 fluol Tetrac/μg protein.
# [5] = test system: monodeiodinase type 1 mRNA; assay: Northern blot, hepatic monodeiodinase type 1 mRNA; settings: Liver
# Method: as §1, §2, §3
# [6] = infusion 13.5 nmol/day/100 g BW
# [7] = infusion 40.5 nmol/day/100 g BW
# [8] = infused rats, adjusted group mean at the mean Ln (TSH) concentration
smiles,measurement,setting,value
"O=C(O)Cc1cc(I)c(Oc2cc(I)c(O)c(I)c2)c(I)c1 [Tetrac, 3,3′,5,5′-tetraiodothyroacetic acid]",Increase of heart weight relative to body weight with increasing infusion rates (in words),"[1]; compared with T4, p<0.01",less efficient
same,Heart,[1]; 1.5 nmol/day/100 g BW,0.76 ± 0.02 g
same,Heart,[1]; 4.5 nmol/day/100 g BW,0.83 ± 0.04 g
same,Heart,[1]; 13.5 nmol/day/100 g BW,0.94 ± 0.03 g
same,Heart,[1]; 40.5 nmol/day/100 g BW,0.98 ± 0.06 g
same,Heart/BW (%),[1]; infusion 1.5 nmol/day/100 g BW,0.31 ± 0.01%
same,Heart/BW (%),[1]; infusion 4.5 nmol/day/100 g BW,0.33 ± 0.02%
same,Heart/BW (%),[1]; [6],0.36 ± 0.01%
same,Heart/BW (%),[1]; [7],0.39 ± 0.02%
same,"GH mRNA, Tetrac/T4 (activity of Tetrac in % of T4)",[2],71%
same,"GH mRNA, adjusted mean",[2]; [8],20280 arbitrary units
same,Serum TSH,[3]; infusion 1.5 nmol/day/100 g BW,90.3 ± 8.6 ng/mL
same,Serum TSH,[3]; infusion 4.5 nmol/day/100 g BW,4.6 ± 0.5 ng/mL
same,Serum TSH,[3]; [6],1.2 ± 0.3 ng/mL
same,Serum TSH,[3]; [7],<0.8 ng/mL
same,"Serum TSH concentration, mean of treatment group","[3]; mean over all dose levels of the treated rats, p=<0.04",24 ng/mL
same,"Residual monodeiodinase type 2 activity, adjusted mean",[4]; BAT,28
same,"Residual monodeiodinase type 2 activity, adjusted mean",[4]; Brain Cortex,27.7
same,"Residual Monodeiodinase type 1 mRNA, Tetrac/T4 (activity of Tetrac in % of T4)",[5]; at equal serum TSH concentration,49%
same,"Residual Monodeiodinase type 1 mRNA, adjusted mean",[5]; [8],2.48 arbitrary units

# Reference: patent publication US6740680B1, “Pharmaceutical compositions to tetrac and methods of use thereof” (Becton Pharma, Inc., priority 1999, dated 2004)
